In US12612387B2, “RAS inhibitors and methods of using the same” (Jazz Pharmaceuticals Ireland Limited, priority 2020, dated 2026):

Columns and labels:
K-RAS G12D = molecular target: T1, K-RAS G12D (Homo sapiens, UniProt P01116, G12D); experiment: Compound depletion assay, K-RAS G12D; format: binding; details: G12D protein 20 μM, compound 8 μM, 25° C.
T1 construct: His tag; purchased Stratech
Protocol: (§1) Compound Depletion Assay Method
(§2) Lyophilized human K-RAS (12 Cys) protein (His tag) and human K-RAS (12 Asp) protein (His tag) were purchased from Stratech and reconstituted at 30 μM in water. The protein concentration of K-RAS G12C and K-RAS G12D was adjusted to 20 μM in K-RAS Assay Buffer (20 mM HEPES pH 7.5, 150 mM NaCl, 1 mM MgCl2). A 49 μl aliquot of protein solution was transferred to 1.5 ml eppendorfs and incubated at room temperature for 10 minutes. A 1 μl aliquot of compound solution in DMSO was added to the protein solutions in the 1.5 ml eppendorfs to initiate the reaction, with a final assay compound concentration of 8 μM. Reactions were agitated at 25° C., 700 rpm. At each time point (0, 30, 180, 360, 1440 minutes), 10 μl of the reaction mixture was removed, added to 30 μl quench solution (0.3% formic acid, 75 nM propranolol in acetonitrile) to stop the reaction and stored at 4° C. Once all reactions were quenched, the samples were centrifuged at 16000 g for 10 minutes to pellet the protein and salts. A 10 μl aliquot of supernatant containing compound was diluted in 50:50 acetonitrile:H2O in a 96 well plate. The plates were heat sealed and the samples analysed by LC-MS/MS to determine the concentration of compound remaining in the samples. To determine the reaction progress, the compound signal was normalized to the internal standard signal (propranolol). The decrease in free compound concentration is shown as a percentage over time, with the […] at time zero fixed at one hundred percent. Compound is assumed to be completely depleted when no longer detectable with a double blank sample as reference.

K-RAS G12C = molecular target: T2, K-RAS G12C (Homo sapiens, UniProt P01116, G12C); experiment: Compound depletion assay, K-RAS G12C; format: binding; details: G12C protein 20 μM, compound 8 μM, 25° C.
T2 construct: His tag; purchased Stratech
Protocol: as §1, §2

T1 sequence (P01116 1-188 isoform P01116-2 G12D): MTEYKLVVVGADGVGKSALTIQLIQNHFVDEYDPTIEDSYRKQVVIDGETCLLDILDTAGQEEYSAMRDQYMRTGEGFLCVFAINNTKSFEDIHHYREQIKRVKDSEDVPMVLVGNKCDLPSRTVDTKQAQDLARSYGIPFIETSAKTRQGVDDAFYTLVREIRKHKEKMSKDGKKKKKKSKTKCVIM
T2 sequence (P01116 1-188 isoform P01116-2 G12C): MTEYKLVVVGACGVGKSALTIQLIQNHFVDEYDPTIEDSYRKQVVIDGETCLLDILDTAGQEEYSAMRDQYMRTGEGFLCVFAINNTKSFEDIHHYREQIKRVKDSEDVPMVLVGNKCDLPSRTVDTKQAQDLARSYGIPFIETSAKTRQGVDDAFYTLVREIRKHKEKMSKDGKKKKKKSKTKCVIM

| Structure (SMILES) | 30 min Category (compound remaining at timepoint) (K-RAS G12D) | 3 hr Category (compound remaining at timepoint) (K-RAS G12D) | 6 hr Category (compound remaining at timepoint) (K-RAS G12D) | 3 hr Category (compound remaining at timepoint) (K-RAS G12C) | 6 hr Category (compound remaining at timepoint) (K-RAS G12C) | 24 hr Category (compound remaining at timepoint) (K-RAS G12D) | 24 hr Category (compound remaining at timepoint) (K-RAS G12C) | 30 min Category (compound remaining at timepoint) (K-RAS G12C) |
| --- | --- | --- | --- | --- | --- | --- | --- | --- |
| C=CC(=O)N1CCN(c2cc(C(=O)Nc3cc(O)cc4ccccc34)nc(NC[C@@H]3CCCN3Cc3ccccc3)n2)C[C@@H]1CC#N [Example 44, 2-[[(2S)-1-benzylpyrrolidin-2-yl]methylamino]-6-[(3S)-3-(cyanomethyl)-4-prop-2-enoyl-piperazin-1-yl]-N-(3-hydroxy-1-naphthyl)pyrimidine-4-carboxamide] | A (≥70% compound remaining at timepoint) | A (≥70% compound remaining at timepoint) | A (≥70% compound remaining at timepoint) | B (30%-70% compound remaining at timepoint) | B (30%-70% compound remaining at timepoint) | – | – | A (≥70% compound remaining at timepoint) |
| C=CC(=O)N1CCN(c2cc(NC(=O)c3cccc4ccccc34)nc(N3CCN(C)CC3)n2)CC1 [Example 12, N-[2-(4-methylpiperazin-1-yl)-6-(4-prop-2-enoylpiperazin-1-yl)pyrimidin-4-yl]naphthalene-1-carboxamide] | – | A (≥70% compound remaining at timepoint) | – | A (≥70% compound remaining at timepoint) | – | A (≥70% compound remaining at timepoint) | A (≥70% compound remaining at timepoint) | – |
| C=CC(=O)N1CCN(c2cc(C(=O)Nc3cccc4ccccc34)nc(OC[C@@H]3CCCN3C)n2)C[C@@H]1CC#N [Example 02, 6-[(3S)-3-(cyanomethyl)-4-prop-2-enoyl-piperazin-1-yl]-2-[[(2S)-1-methylpyrrolidin-2-yl]methoxy]-N-(1-naphthyl)pyrimidine-4-carboxamide] | – | A (≥70% compound remaining at timepoint) | – | B (30%-70% compound remaining at timepoint) | – | A (≥70% compound remaining at timepoint) | B (30%-70% compound remaining at timepoint) | – |
| C=CC(=O)N1CCN(c2cc(C(=O)Nc3cc(O)cc4ccccc34)nc(OC[C@@H]3CCCN3C)n2)CC1 [Example 03, N-(3-hydroxy-1-naphthyl)-2-[[(2S)-1-methylpyrrolidin-2-yl]methoxy]-6-(4-prop-2-enoylpiperazin-1-yl)pyrimidine-4-carboxamide] | – | A (≥70% compound remaining at timepoint) | – | C (≤30% compound remaining at timepoint) | C (≤30% compound remaining at timepoint) | A (≥70% compound remaining at timepoint) | C (≤30% compound remaining at timepoint) | B (30%-70% compound remaining at timepoint) |
| C=CC(=O)N1CCN(c2cc(C(=O)Nc3cc(O)cc4ccccc34)nc(NCCN(C)C)n2)C[C@@H]1CC#N [Example 29, 6-[(3S)-3-(cyanomethyl)-4-prop-2-enoyl-piperazin-1-yl]-2-[2-(dimethylamino)ethylamino]-N-(3-hydroxy-1-naphthyl)pyrimidine-4-carboxamide] | A (≥70% compound remaining at timepoint) | A (≥70% compound remaining at timepoint) | A (≥70% compound remaining at timepoint) | B (30%-70% compound remaining at timepoint) | C (≤30% compound remaining at timepoint) | – | – | A (≥70% compound remaining at timepoint) |
| C=CC(=O)N1CCN(c2cc(C(=O)Nc3cccc4ccccc34)nc(N3CCN(C)CC3)n2)CC1 [Example 20, 2-(4-methylpiperazin-1-yl)-N-(1-naphthyl)-6-(4-prop-2-enoylpiperazin-1-yl)pyrimidine-4-carboxamide] | – | A (≥70% compound remaining at timepoint) | – | A (≥70% compound remaining at timepoint) | – | A (≥70% compound remaining at timepoint) | A (≥70% compound remaining at timepoint) | – |
| C=CC(=O)N1CCN(c2cc(C(=O)N(C)c3cccc4ccccc34)nc(OC[C@@H]3CCCN3C)n2)CC1 [Example 13, N-methyl-2-[[(2S)-1-methylpyrrolidin-2-yl]methoxy]-N-(1-naphthyl)-6-(4-prop-2-enoylpiperazin-1-yl)pyrimidine-4-carboxamide] | – | A (≥70% compound remaining at timepoint) | – | A (≥70% compound remaining at timepoint) | – | A (≥70% compound remaining at timepoint) | A (≥70% compound remaining at timepoint) | – |
| C=CC(=O)N1CCN(c2cc(C(=O)Nc3cccc4ccccc34)nc(-c3ccnn3C)n2)CC1 [Example 11, 2-(2-methylpyrazol-3-yl)-N-(1-naphthyl)-6-(4-prop-2-enoylpiperazin-1-yl)pyrimidine-4-carboxamide] | – | A (≥70% compound remaining at timepoint) | – | A (≥70% compound remaining at timepoint) | – | A (≥70% compound remaining at timepoint) | A (≥70% compound remaining at timepoint) | A (≥70% compound remaining at timepoint) |

Second part, led by results:

| 30 min Category (compound remaining at timepoint) (K-RAS G12D) | 3 hr Category (compound remaining at timepoint) (K-RAS G12D) | 6 hr Category (compound remaining at timepoint) (K-RAS G12D) | 3 hr Category (compound remaining at timepoint) (K-RAS G12C) | 6 hr Category (compound remaining at timepoint) (K-RAS G12C) | 24 hr Category (compound remaining at timepoint) (K-RAS G12D) | 24 hr Category (compound remaining at timepoint) (K-RAS G12C) | Structure (SMILES) | 30 min Category (compound remaining at timepoint) (K-RAS G12C) |
| --- | --- | --- | --- | --- | --- | --- | --- | --- |
| A (≥70% compound remaining at timepoint) | A (≥70% compound remaining at timepoint) | A (≥70% compound remaining at timepoint) | C (≤30% compound remaining at timepoint) | C (≤30% compound remaining at timepoint) | – | – | C=CC(=O)N1CCN(c2cc(C(=O)Nc3cc(O)cc4ccccc34)nc(NCC3CCCN(C)C3)n2)C[C@@H]1CC#N (stereo partly drawn) [Example 43, 6-[(3S)-3-(cyanomethyl)-4-prop-2-enoyl-piperazin-1-yl]-N-(3-hydroxy-1-naphthyl)-2-[(1-methyl-3-piperidyl)methylamino]pyrimidine-4-carboxamide] | B (30%-70% compound remaining at timepoint) |
| A (≥70% compound remaining at timepoint) | A (≥70% compound remaining at timepoint) | A (≥70% compound remaining at timepoint) | C (≤30% compound remaining at timepoint) | C (≤30% compound remaining at timepoint) | – | – | C=CC(=O)N1CCN(c2cc(C(=O)Nc3cc(O)cc4ccccc34)nc(OCc3ccnn3C)n2)C[C@@H]1CC#N [Example 35, 6-[(3S)-3-(cyanomethyl)-4-prop-2-enoyl-piperazin-1-yl]-N-(3-hydroxy-1-naphthyl)-2-[(2-methylpyrazol-3-yl)methoxy]pyrimidine-4-carboxamide] | B (30%-70% compound remaining at timepoint) |
| A (≥70% compound remaining at timepoint) | A (≥70% compound remaining at timepoint) | A (≥70% compound remaining at timepoint) | C (≤30% compound remaining at timepoint) | C (≤30% compound remaining at timepoint) | – | – | C=CC(=O)N1CCN(c2cc(C(=O)Nc3cc(O)cc4ccccc34)nc(N3CCN(CCO)CC3)n2)C[C@@H]1CC#N [Example 37, 6-[(3S)-3-(cyanomethyl)-4-prop-2-enoyl-piperazin-1-yl]-2-[4-(2-hydroxyethyl)piperazin-1-yl]-N-(3-hydroxy-1-naphthyl)pyrimidine-4-carboxamide] | B (30%-70% compound remaining at timepoint) |
| A (≥70% compound remaining at timepoint) | A (≥70% compound remaining at timepoint) | A (≥70% compound remaining at timepoint) | C (≤30% compound remaining at timepoint) | C (≤30% compound remaining at timepoint) | – | – | C=CC(=O)N1CCN(c2cc(C(=O)Nc3cc(O)cc4ccccc34)nc(OCC3CCCCN3C)n2)C[C@@H]1CC#N (stereo partly drawn) [Example 48, 6-[(3S)-3-(cyanomethyl)-4-prop-2-enoyl-piperazin-1-yl]-N-(3-hydroxy-1-naphthyl)-2-[(1-methyl-2-piperidyl)methoxy]pyrimidine-4-carboxamide] | C (≤30% compound remaining at timepoint) |
